Holding throughout (type): cell-based, rat
Test [1] relates to PASMCs. Briefly: Intracellular pH (pHi) in PASMCs (BCECF-AM). The note with it: for basal pHi, Baseline: before the compound. As to the method:
(§1) The method for obtaining single PASMCs has been described previously in Shimoda L. A., et al., Am J Physiol 274: 842-853 (1998), which is hereby incorporated by reference in its entirety. Intrapulmonary arteries (200-600 μm o.d.) were isolated from male Wistar rats (250-350 g) and cleaned of connective tissue. After the lumen was gently rubbed with a cotton swab to remove the endothelial cells, the arteries were allowed to recover for 30 minutes in cold (4° C.) HBSS containing (in mM): 130 NaCl, 5 KCl, 1.2 MgCl2, 1.5 CaCl2, 10 N-[2-hydroxyethyl]piperazine-N′-[2-ethanesulfonic acid] (HEPES) and 10 glucose, with pH adjusted to 7.2 with 5 M NaOH, followed by 20 minutes in reduced-Ca^2+ (20 μM CaCl2) HBSS at room temperature. The tissue was enzymatically digested in reduced-Ca^2+ HBSS containing collagenase (type I; 1750 U/ml), papain (9.5 U/ml), bovine serum albumin (2 mg/ml) and dithiothreitol (1 mM) at 37° C. for 20 minutes. Following digestion, single smooth muscle cells were dispersed by gentle trituration with a wide-bore transfer pipette in Ca^2+-free HBSS and the cell suspension was placed on 25 mm glass cover slips. PASMCs were transiently cultured in Ham's-F-12 media supplemented with 0.5% fetal bovine serum and 1% penicillin/streptomycin for 24-48 hrs. before study.
pHi within PASMCs was monitored using the cell permeant pH sensitive dye 2′,7′-bis(carboxyethyl)-5(6)-carboxyflourescein (BCECF-AM). Cells were incubated with BCECF-AM for 60 min at 37° C. under an atmosphere of 21% O2-5% CO2. Cells were then washed with Kreb's solution for 15 min at 37° C. to remove extracellular dye and allow complete de-esterification of cytosolic dye. Cells were excited with light at 490 and 440 nm and light emitted from the cells was detected at 530 nm. The ratio of 490 to 440 nm emission was calculated and converted into pH values by performing a calibration curve after each experiment. PASMCs were subjected to a high K^+ buffer containing 10 μM nigericin, which allowed the cell to adopt the pH of the high K^+ buffer. Two high K^+/nigericin buffers were used to set pH to 6.5 or 7.5, pHi was estimated from in situ calibration after each experiment. Cells were perfused with a solution containing (in mM): 105 KCl, 1 MgCl2, 1.5 CaCl2, 10 glucose, 20 HEPES-Tris and 0.01 nigericin to allow pHi to equilibrate to external pH as in Quinn D. A., et al., Am J Respir Cell Mol Biol 5: 586-591 (1991), which is hereby incorporated by reference in its entirety. A two point calibration was created from fluorescence measured as pHi was adjusted with KOH from 6.5 to 7.5. Intracellular H^+ ion concentration ([H^+]i) was determined from pHi using the formula: pHi=−log ([H^+]i).

Test [2] deals with PASMCs. Briefly: Basal intracellular Ca2+ concentration in PASMCs (Fura-2). The note with it: for basal [Ca^2+]i, Treatment: 100 μM, after 10 min of perfusion; for effect on resting [Ca^2+]i: 10-100 μM; for basal [Ca^2+]i, Baseline: before perfusion with the compound. The protocol: as §1, with “Intrapulmonary” for “The method for obtaining single PASMCs has been described previously in Shimoda L. A., et al., Am J Physiol 274: 842-853 (1998), which is hereby incorporated by reference in its entirety. Intrapulmonary”, “The tissue was enzymatically digested in reduced-Ca^2+ HBSS containing collagenase (type I; 1750 U/ml), papain (9.5 U/ml), bovine serum albumin (2 mg/ml) and dithiothreitol (1 mM) at 37° C. for 20 minutes.” left out
(§2) Acute hypoxia increases intracellular [Ca^2+] in pulmonary arterial smooth muscle by enhancing capacitative Ca^2+ entry. […] Ratiometric measurement of fluorescence from the dye was performed on a workstation (Intracellular Imaging Inc, Cincinnati, Ohio) consisting of a Nikon TSE 100 Ellipse inverted microscope with epi-fluorescence attachments. The light beam from a xenon arc lamp was filtered at 340 and 380 nm, and focused onto the PASMCS under examination via a 20× fluorescence objective (Super Fluor 20, Nikon). Light emitted from the cell at 510 nm was returned through the objective and detected by a cooled CCD imaging camera. An electronic shutter (Sutter Instruments) was used to minimize photobleaching of dye. Protocols were executed and data collected on-line with InCyte software (Intracellular Imaging Inc). [Ca^2+]i was estimated from in vitro calibration solutions.

For test [3], the system named is PASMCs. Description: Hypoxia-induced increase in [Ca2+]i in PASMCs (4% O2). The settings on record: 10-100 μM. The protocol:
as §1, with “Intrapulmonary” for “The method for obtaining single PASMCs has been described previously in Shimoda L. A., et al., Am J Physiol 274: 842-853 (1998), which is hereby incorporated by reference in its entirety. Intrapulmonary”, “The tissue was enzymatically digested in reduced-Ca^2+ HBSS containing collagenase (type I; 1750 U/ml), papain (9.5 U/ml), bovine serum albumin (2 mg/ml) and dithiothreitol (1 mM) at 37° C. for 20 minutes.” left out
as §2

Each structure is given as a SMILES string. Several values for one entry are separate records, joined by “and”; a condition that tells them apart may be missing. Equal values may be shown once. Entries after “also recorded” stand apart in the source; their conditions may differ.

`CCOc1ccc2nc(S(N)(=O)=O)sc2c1` [EZ, ethoxzolamide]: in the test with PASMCs [1] (100 μM), the “basal pHi, Treatment” value stood at 7.19 ± 0.04 and the “effect on basal pHi” value is reported as “significant decrease”. In addition, the “basal pHi, Baseline” value with PASMCs [1] came out at 7.28 ± 0.04. For the same compound, in the test with PASMCs [2], the “basal [Ca^2+]i, Treatment” value stood at 122.5 ± 6.3 nM; the “effect on resting [Ca^2+]i” value is “neither EZ nor BZ altered”; the “basal [Ca^2+]i, Baseline” value was found to be 125.5 ± 7.1 nM. Besides, in the test with PASMCs [3], the “effect on hypoxia-induced increase in [Ca^2+]i” value is reported as “no effect”. Moreover, in the test on PASMCs [3] (listed as EF), the “effect on hypoxia-induced increase in [Ca^2+]i” value was “neither EF (FIG. 5) nor BZ (FIG. 6) had a significant effect”.
On to `CC(=O)Nc1nnc(S(N)(=O)=O)s1` [AZ, acetazolamide], for which the “effect on basal pHi” value with PASMCs [1] (100 μM) is “small decrease”. For the same compound, in the test with PASMCs [1] (100 μM, 4% O2), the “effect of hypoxia on pHi in treated cells” value is reported as “no effect” and the “pHi after hypoxia in pretreated PASMCs” value is on record as 7.24±0.03. Moreover, the “basal pHi, Baseline” value in the test with PASMCs [1] is 7.26±0.02. In the test with PASMCs [2], the “basal [Ca^2+]i, Treatment” value was 150.0 ± 9.6 nM and 155.0 ± 9.6 nM; the “effect on resting [Ca^2+]i” value was “no effect”; the “basal [Ca^2+]i, Baseline” value turned out to be 159.6 ± 10.8 nM. Further, in the test with PASMCs [3], the “effect on hypoxia-induced increase in [Ca^2+]i” value is given as “almost complete blockade; also recorded: significant reduction”.
`NS(=O)(=O)c1nnc(NS(=O)(=O)c2ccccc2)s1` [BZ, benzolamide]: in the test with PASMCs [1] (100 μM), the “basal pHi, Treatment” value worked out at 7.25 ± 0.03 and the “effect on basal pHi” value was “significant decrease”. Also, the “basal pHi, Baseline” value in the test on PASMCs [1] is 7.31 ± 0.02. Moreover, in the test with PASMCs [2], the “basal [Ca^2+]i, Treatment” value turned out to be 120.7 ± 7.7 nM; the “effect on resting [Ca^2+]i” value is on record as “neither EZ nor BZ altered”; the “basal [Ca^2+]i, Baseline” value came out at 113.4 ± 7.4 nM. Moreover, the “effect on hypoxia-induced increase in [Ca^2+]i” value in the test on PASMCs [3] is “no effect; also recorded: neither EF (FIG. 5) nor BZ (FIG. 6) had a significant effect”.

For the origin of these results see patent US8614236B2 (University of Washington, priority 2006, dated 2013).
